# Measured values: PubChem BioAssay (NCI)
#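 Dose response: 5 concentrations. Exposure: 48 h. Format: 96-well plates. Endpoint: linear interpolation; highest concentration if not reached. Here, GI50 denotes the concentration required for 50% inhibition of growth. Definition used: TGI = concentration required for complete inhibition of growth.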
# Key:
# Assay in all cases: NCI-60 cell line screen, 48 h
# [1] = system: HT29 colon
# [2] = system: SNB-75 CNS
# [3] = system: SF-268 CNS
# [4] = system: SF-539 CNS
# [5] = system: COLO 205 colon
# [6] = system: 786-0 renal
# [7] = system: NCI-H23 lung
# [8] = system: SK-MEL-28 melanoma
# [9] = system: NCI-H460 lung
# [10] = system: RPMI-8226 leukemia
SMILES,TGI [1],TGI [2],TGI [3],TGI [4],TGI [5],TGI [6],TGI [7],TGI [8],TGI [9],TGI [10],GI50 [1],GI50 [2],GI50 [3],GI50 [4],GI50 [5],GI50 [7],GI50 [8],GI50 [9],GI50 [10]
O=C1c2ccccc2C(=O)c2c1cc(S(=O)(=O)O)c(O)c2O,> 100 µM,> 100 µM,> 100 µM,> 100 µM,> 100 µM,> 100 µM,> 100 µM,> 100 µM,> 100 µM,> 100 µM,,,,,,,,,
O=c1cc(N2CCNCC2)nc2ccccn12,> 100 µM,> 100 µM,> 100 µM,> 100 µM,> 100 µM,> 100 µM,> 100 µM,,,> 100 µM,,,,,,,,,
COc1ccc(C[C@@H](CO)NC2=C(C#N)CCC2)cc1,> 100 µM,95.1 µM,> 100 µM,> 100 µM,> 100 µM,> 100 µM,> 100 µM,> 100 µM,> 100 µM,59.6 µM,,,,,,,,,
Oc1c2cc(Cl)cc1COCc1cc(Cl)cc(c1O)COCc1cc(Cl)cc(c1O)COC2,,63.4 µM,,,> 100 µM,37.7 µM,98.6 µM,> 100 µM,> 100 µM,> 100 µM,,,,,,,,,
COc1ccc(C(=O)c2sc(N(C)C)nc2-c2ccccc2)cc1,> 100 µM,80.1 µM,> 100 µM,> 100 µM,> 100 µM,> 100 µM,> 100 µM,> 100 µM,52.9 µM,> 100 µM,,,,,,,,,
Cc1cc2cc3c(cc2c(-c2ccc([N+](=O)[O-])cc2)n1)OCO3,> 100 µM,58.4 µM,> 100 µM,72.4 µM,> 100 µM,42.5 µM,> 100 µM,> 100 µM,> 100 µM,> 100 µM,,,,,,,,,
C[C@]12CC[C@H](OC(=O)Cc3ccc(N(CCCl)CCCl)cc3)CC1=CC[C@@H]1[C@@H]2CC[C@]2(C)C(=O)CC[C@@H]12,> 100 µM,> 100 µM,> 100 µM,> 100 µM,> 100 µM,,> 100 µM,> 100 µM,> 100 µM,> 100 µM,,,,,,,,,
COc1ccccc1N(CN1C(=O)CCC1C(=O)O)C(C)=O (configuration not stated),> 100 µM,> 100 µM,> 100 µM,> 100 µM,> 100 µM,> 100 µM,> 100 µM,> 100 µM,> 100 µM,> 100 µM,,,,,,,,,
Nc1nc(Cl)c(CO)c(NCC2(CO)CC(CCc3ccccc3)C2)n1 (configuration not stated),81.6 µM,51.2 µM,> 100 µM,> 100 µM,> 100 µM,> 100 µM,37.5 µM,47 µM,56.9 µM,35.2 µM,,,,,,,,,
O=P1(O)c2ccccc2CCc2ccccc21,,> 100 µM,> 100 µM,> 100 µM,> 100 µM,> 100 µM,> 100 µM,> 100 µM,,> 100 µM,,,,,,,,,
COc1ccc(/C=C2\CCC(C)C3C2=NN(c2ccccc2)C3c2ccc(OC)c(OC)c2)cc1OC (configuration not stated),18.3 µM,6.37 µM,30.4 µM,7.49 µM,17.2 µM,14.5 µM,16.9 µM,31.6 µM,,4.3 µM,,,,,,,,,
COc1cc2ncnc(Nc3cccc(Cl)c3)c2cc1OC,34.9 µM,13.4 µM,53.9 µM,32.8 µM,> 70.5 µM,44.1 µM,44.5 µM,42.6 µM,40.7 µM,42.3 µM,,,,,,,,,
CC(C)(C)C(=O)OCOP(=O)(OCOC(=O)C(C)(C)C)OCC1OC(n2ccc(=O)[nH]c2=O)C(N=[N+]=[N-])C1O (configuration not stated),11.4 µM,14.1 µM,17.8 µM,8.88 µM,13.5 µM,10.3 µM,16.3 µM,24 µM,12.1 µM,5.22 µM,,,,,,,,,
COc1nc(N=P(c2ccccc2)(c2ccccc2)c2ccccc2)cc(=O)[nH]1,> 100 µM,> 100 µM,> 100 µM,> 100 µM,> 100 µM,> 100 µM,> 100 µM,> 100 µM,> 100 µM,> 100 µM,,,,,,,,,
CC(=O)N(C(C)=O)n1c(Cc2ccc(Cl)cc2)n[nH]c1=O,> 100 µM,> 100 µM,> 100 µM,> 100 µM,> 100 µM,> 100 µM,> 100 µM,> 100 µM,> 100 µM,> 100 µM,,,,,,,,,
Cc1c(C)c(C)n(C2OC(CO)C(O)C(O)C2O)c(=S)c1C#N (configuration not stated),> 100 µM,> 100 µM,> 100 µM,> 100 µM,> 100 µM,> 100 µM,> 100 µM,> 100 µM,> 100 µM,,,,,,,,,,
O=S(=O)(O)C1=C2Sc3ccccc3N=C2c2ccccc2C1,40 µM,32.5 µM,27.5 µM,24.4 µM,30.3 µM,31.4 µM,31.1 µM,31.4 µM,40 µM,38.6 µM,,,,,,,,,

SMILES,TGI [1],TGI [2],TGI [3],TGI [4],TGI [5],TGI [6],TGI [7],TGI [8],TGI [9],TGI [10],GI50 [1],GI50 [2],GI50 [3],GI50 [4],GI50 [5],GI50 [7],GI50 [8],GI50 [9],GI50 [10]
O=S(=O)(SC1=NCCN1)c1ccc2ccccc2c1,40 µM,68 µM,52.5 µM,63.7 µM,37.7 µM,97.1 µM,61.8 µM,> 100 µM,42.8 µM,64 µM,,,,,,,,,
CCCCCCCCCCCCN(CC(O)C(O)C(OC1OC(CO)C(O)C(O)C1O)C(O)CO)C(=O)CCCCCCCCCCC (configuration not stated),34.4 µM,35 µM,43.6 µM,> 100 µM,35.3 µM,33.8 µM,46.2 µM,31.9 µM,39.7 µM,50.9 µM,,,,,,,,,
COC(=O)c1cc2c(cc1CC1Cc3cc4c(cc3C1=O)CCC4)CCC2 (configuration not stated),> 100 µM,> 100 µM,> 100 µM,> 100 µM,> 100 µM,> 100 µM,> 100 µM,> 100 µM,> 100 µM,> 100 µM,,,,,,,,,
O=C(O)c1ccccc1/C=N/NC1=NCCN1,> 100 µM,> 100 µM,> 100 µM,> 100 µM,> 100 µM,> 100 µM,> 100 µM,> 100 µM,> 100 µM,> 100 µM,,,,,,,,,
O=C1CN(C(=O)C2CCCN2C(=O)C2CCCN2)C(=O)CN1 (configuration not stated),> 100 µM,> 100 µM,> 100 µM,,> 100 µM,> 100 µM,> 100 µM,> 100 µM,> 100 µM,> 100 µM,,,,,,,,,
Cc1ccc([N+](=O)[O-])cc1S(=O)(=O)Nc1ccc(C2=NN(c3ccc([N+](=O)[O-])cc3[N+](=O)[O-])C(c3cccs3)C2)cc1 (configuration not stated),> 100 µM,81.3 µM,69.9 µM,71.2 µM,54.5 µM,38.6 µM,44.1 µM,> 100 µM,,60.5 µM,,,,,,,,,
Nc1nc(I)nc2c1ncn2C1OC(COS(N)(=O)=O)C(O)C1O (configuration not stated),0.0353 µM,< 0.0136 µM,0.018 µM,< 0.014 µM,0.0167 µM,0.0297 µM,0.0324 µM,0.0148 µM,0.108 µM,0.172 µM,,,,,,,,,
CCN(CC)CCn1nc(N)c2nc3ccccc3nc21,> 100 µM,> 100 µM,> 100 µM,> 100 µM,,> 100 µM,> 100 µM,> 100 µM,> 100 µM,> 100 µM,,,,,,,,,
CCOC(=O)c1c(NC(=O)c2cccs2)sc2c1CCC2,> 100 µM,26.2 µM,> 100 µM,> 100 µM,> 100 µM,> 100 µM,> 100 µM,,> 100 µM,> 100 µM,,,,,,,,,
CO/C(N)=C(\C#N)N=Cc1ccco1,> 100 µM,> 100 µM,> 100 µM,,> 100 µM,> 100 µM,> 100 µM,> 100 µM,,> 100 µM,,,,,,,,,
O=C1N=C(SC2OC(CO)C(O)C(O)C2O)S/C1=C\c1ccccc1 (configuration not stated),> 100 µM,> 100 µM,> 100 µM,> 100 µM,,> 100 µM,> 100 µM,> 100 µM,> 100 µM,> 100 µM,,,,,,,,,
CCC(C)(C)C1CCC2c3c([nH]c4ccccc34)C3C(=O)N(c4ccc(OC)cc4)C(=O)C3C2C1 (configuration not stated),24.9 µM,42.2 µM,43.6 µM,33.5 µM,24.7 µM,25.9 µM,35.1 µM,> 100 µM,> 100 µM,,,,,,,,,,
OCCCNc1nc(=S)[nH]c2[nH]ncc12,> 100 µM,> 100 µM,92.2 µM,> 100 µM,> 100 µM,,> 100 µM,> 100 µM,> 100 µM,> 100 µM,54.8 µM,> 100 µM,32.7 µM,23.3 µM,29.3 µM,51.7 µM,57.1 µM,30.5 µM,80.8 µM
COC(=O)C1=C(O)C(C(=O)OC)[C@]2(O)[C@H](C(=O)OC)[C@H]1C[C@@H](c1ccc(OC)c(OC)c1)[C@H]2C(=O)OC (some centres not stated),> 100 µM,46 µM,,20.7 µM,66.3 µM,> 100 µM,> 100 µM,90.7 µM,42.1 µM,19.1 µM,,,,,,,,,
C/C(Cl)=N/OC(=O)Nc1ccc(S(N)(=O)=O)c(C)c1,> 77.7 µM,34.2 µM,> 61.3 µM,,4.14 µM,4.29 µM,39.3 µM,30.6 µM,> 100 µM,6.49 µM,,,,,,,,,
Cc1cc(S(=O)(=O)Nc2nc(N)n(-c3ccccn3)n2)c(S)cc1Cl,> 100 µM,> 100 µM,> 100 µM,> 100 µM,> 100 µM,> 100 µM,,> 100 µM,> 100 µM,> 100 µM,,,,,,,,,
